Data published in US20210186950A1, “COMBINATIONS COMPRISING TROPIFEXOR AND CENICRIVIROC” (NOVARTIS AG, priority 2018, published 2021).
Entries after “also recorded” stand apart in the source; their conditions may differ. Read-outs that look alike come from different tables or passages of the source.

Assays:
[1] = system: FXR; experiment: FGF19 biomarker in single and multiple dose studies of TRX; type: in vivo, human; conditions: single doses 10-3000 μg or multiple daily doses 10-100 μg; 69 subjects
Protocol: (§1) A total of 69 subjects have received TRX at doses ranging from 10 μg to 3000 μg in single or 10 μg to 100 μg in multiple daily doses.

[2] = Drug-drug interaction study between TRX and CVC in healthy and healthy but overweight to obese subjects (plasma pharmacokinetics, tolerability); type: in vivo, human; conditions: for AUC(0-t) / Cmax: human, plasma, oral, TRX 60 μg
Text: This is a single site, randomized, parallel group, 3 arm double-blind, double-dummy study to evaluate the potential drug-drug interaction between TRX and CVC in healthy and healthy but overweight to obese subjects. Healthy and healthy but overweight to obese subjects with body mass index (BMI) up to 32, are included to give a better representation of the NASH patients that will be studied in future clinical studies. The subjects were randomized into 3 arms a) TRX monotherapy, b) CVC monotherapy, and c) TRX and CVC as a combination.
A total of 42 subjects were randomized into the 3 parallel arms receiving single daily doses of TRX, CVC, and TRX+CVC combination.
This study examined doses of 60 μg of tropifexor and 150 mg of CVC given with a standard breakfast.
Pharmacokinetics: Sample collections included time points up to 24 hours after the first (Day 1) and the last (Day 14) doses to establish the AUC0-24 h,Cmax AUC0-24 h,ss and Cmax,ss for TRX, CVC, and TRX+CVC plasma concentration-time profiles.

[3] = Safety in single dose studies of TRX; type: in vivo, human; conditions: single dose studies up to 3000 μg
Protocol: as §1

[4] = system: nonalcoholic steatohepatitis; conditions: cited from earlier work
[5] = Phase I studies of CVC, tolerability; type: in vivo, human; conditions: single doses up to 900 mg; multiple daily doses up to 400 mg for 10 days
[6] = 1-month combination toxicity study with CVC and TRX; type: in vivo; conditions: CVC 30 mg/kg/day alone
Protocol: A 1-month combination toxicity study was performed with cenicriviroc (CVC) (30 mg/kg/day) and tropifexor (TRX) (0.03 mg/kg or 1 mg/kg/day).

[7] = system: NASH with liver fibrosis; conditions: cited from earlier work
[8] = Day 14, TRX 60 μg + CVC 150 mg daily
[9] = Day 1, dosed alone, CVC 150 mg, with standard breakfast, read-out: area under the concentration-time curve (AUC0-24 h)
[10] = Day 1, dosed alone, CVC 150 mg, with standard breakfast, read-out: observed peak drug concentration (Cmax)
[11] = Day 14, dosed alone, CVC 150 mg daily, read-out: steady-state AUC0-24 h,ss
[12] = Day 14, dosed alone, CVC 150 mg daily, read-out: steady-state Cmax,ss
[13] = NASH adults with liver fibrosis, one year

Row | SMILES | FGF19, biomarker of FXR target engagement in the enterocyte [1] | decrease of AUC0-24 h of TRX on co-administration of CVC ([2]; Day 1, TRX 60 μg + CVC 150 mg) [%] | decrease of Cmax of TRX on co-administration of CVC ([2]; Day 1, TRX 60 μg + CVC 150 mg) [%] | reduction of AUC0-24 h,ss of TRX when co-administered with CVC [2, 8] [%] | reduction of Cmax,ss of TRX when co-administered with CVC [2, 8] [%] | AUC(0-t) [2, 9] [ng·h/mL] | Cmax [2, 10] [ng/mL] | AUC(0-t) [2, 11] [ng·h/mL] | Cmax [2, 12] [ng/mL] | reduction of TRX exposure by co-administration of CVC ([2]; summary statement, TRX 60 μg + CVC 150 mg) | safety concerns [3] | adverse effects on long term administration [4] | accumulation in plasma over the study duration ([2]; 150 mg daily, Day 1 to Day 14) | impact of co-administration with TRX on Cmax and AUC0-24 h of CVC ([2]; CVC 150 mg + TRX 60 μg) | tolerability [5] | microscopic findings indicative of toxicity [6] | fibrosis [7, 13] | improvement of NAS [7, 13] | adverse effects ([7]; patients)
1 | O=C(O)c1cc(F)c2nc(N3[C@@H]4CC[C@H]3C[C@@H](OCc3c(-c5ccccc5OC(F)(F)F)noc3C3CC3)C4)sc2c1 [TRX, 2-[(1R,3r,5S)-3-({5-cyclopropyl-3-[2-(trifluoromethoxy)phenyl]-1,2-oxazol-4-yl}methoxy)-8-azabicyclo [3.2.1]octan-8-yl]-4-fluoro-1,3-benzothiazole-6-carboxylic acid] | Dose-dependent increases | 32 | 33 | 35 | 35 | 17.9 | 1.46 | 25.2 | 1.77 | 32-33% | No safety concerns | – | – | – | – | – | – | – | –
2 | CC[C@H]1[C@@H](O)[C@@H]2[C@H](CC[C@]3(C)[C@@H]([C@H](C)CCC(=O)O)CC[C@@H]23)[C@@]2(C)CC[C@@H](O)C[C@@H]12 [OCA, obeticholic acid] | – | – | – | – | – | – | – | – | – | – | – | pruritus; also recorded: increased LDL cholesterol | – | – | – | – | – | – | –
3 | CCCCOCCOc1ccc(-c2ccc3c(c2)/C=C(/C(=O)Nc2ccc([S@@+]([O-])Cc4cncn4CCC)cc2)CCCN3CC(C)C)cc1 [CVC, (S,E)-8-(4-(2-butoxyethoxy)phenyl)-1-(2-methylpropyl)-N-(4-(((1-propyl-1H-imidazol-5-yl)methyl)sulfinyl)phenyl)-1,2,3,4-tetrahydrobenzo[b]azocine-5-carboxamide] | – | – | – | – | – | 4640 | 450 | 10800 | 778 | – | – | – | accumulated in plasma | no marked impact | generally well-tolerated | no microscopic findings indicative of toxicity | reduction of fibrosis | no significant impact | can induce fatigue or diarrhea in a small part of the patients
